# According to PMC9250890 (Cell Reports, 2022):
# Entries after “also recorded” stand apart in the source; their conditions may differ. Counter-ions that a name gives are not always drawn. Like-named read-outs stand apart in the source and are kept apart here.
# Key:
# human ANO6 = target: T1, human ANO6 (Homo sapiens, UniProt Q4KMQ2); assay: YFP fluorescence quenching-based anion channel assay, FRT-ANO6 cells; format: cell-based
# T1 sequence (Q4KMQ2 1-931 isoform Q4KMQ2-2): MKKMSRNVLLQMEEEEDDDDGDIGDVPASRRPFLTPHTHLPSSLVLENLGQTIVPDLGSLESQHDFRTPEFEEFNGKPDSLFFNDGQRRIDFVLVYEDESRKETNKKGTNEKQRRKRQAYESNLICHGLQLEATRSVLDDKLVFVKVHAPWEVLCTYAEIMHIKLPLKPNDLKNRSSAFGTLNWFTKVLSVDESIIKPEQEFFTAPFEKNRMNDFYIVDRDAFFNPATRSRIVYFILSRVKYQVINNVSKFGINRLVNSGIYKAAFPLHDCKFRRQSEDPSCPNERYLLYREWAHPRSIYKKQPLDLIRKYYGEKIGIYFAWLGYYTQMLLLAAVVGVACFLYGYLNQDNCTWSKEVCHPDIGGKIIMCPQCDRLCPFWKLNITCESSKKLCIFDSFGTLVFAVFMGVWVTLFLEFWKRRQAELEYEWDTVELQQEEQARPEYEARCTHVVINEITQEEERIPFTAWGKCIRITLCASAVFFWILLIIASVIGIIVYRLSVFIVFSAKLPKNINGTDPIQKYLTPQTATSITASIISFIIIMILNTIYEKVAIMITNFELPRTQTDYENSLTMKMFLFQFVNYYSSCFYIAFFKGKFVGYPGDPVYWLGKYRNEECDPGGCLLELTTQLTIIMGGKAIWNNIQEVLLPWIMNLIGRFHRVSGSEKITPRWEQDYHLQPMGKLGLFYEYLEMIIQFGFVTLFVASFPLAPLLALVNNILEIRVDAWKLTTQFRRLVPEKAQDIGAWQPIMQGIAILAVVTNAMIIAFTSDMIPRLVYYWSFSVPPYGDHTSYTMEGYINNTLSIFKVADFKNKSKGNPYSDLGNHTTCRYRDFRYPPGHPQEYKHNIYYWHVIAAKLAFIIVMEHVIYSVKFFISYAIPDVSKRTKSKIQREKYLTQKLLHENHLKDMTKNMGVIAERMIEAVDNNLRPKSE
# human ANO2 = target: T2, human ANO2 (Homo sapiens, UniProt Q9NQ90); assay: YFP quenching anion channel assay, FRT-ANO2 cells; format: cell-based
# T2 sequence (Q9NQ90 1-998): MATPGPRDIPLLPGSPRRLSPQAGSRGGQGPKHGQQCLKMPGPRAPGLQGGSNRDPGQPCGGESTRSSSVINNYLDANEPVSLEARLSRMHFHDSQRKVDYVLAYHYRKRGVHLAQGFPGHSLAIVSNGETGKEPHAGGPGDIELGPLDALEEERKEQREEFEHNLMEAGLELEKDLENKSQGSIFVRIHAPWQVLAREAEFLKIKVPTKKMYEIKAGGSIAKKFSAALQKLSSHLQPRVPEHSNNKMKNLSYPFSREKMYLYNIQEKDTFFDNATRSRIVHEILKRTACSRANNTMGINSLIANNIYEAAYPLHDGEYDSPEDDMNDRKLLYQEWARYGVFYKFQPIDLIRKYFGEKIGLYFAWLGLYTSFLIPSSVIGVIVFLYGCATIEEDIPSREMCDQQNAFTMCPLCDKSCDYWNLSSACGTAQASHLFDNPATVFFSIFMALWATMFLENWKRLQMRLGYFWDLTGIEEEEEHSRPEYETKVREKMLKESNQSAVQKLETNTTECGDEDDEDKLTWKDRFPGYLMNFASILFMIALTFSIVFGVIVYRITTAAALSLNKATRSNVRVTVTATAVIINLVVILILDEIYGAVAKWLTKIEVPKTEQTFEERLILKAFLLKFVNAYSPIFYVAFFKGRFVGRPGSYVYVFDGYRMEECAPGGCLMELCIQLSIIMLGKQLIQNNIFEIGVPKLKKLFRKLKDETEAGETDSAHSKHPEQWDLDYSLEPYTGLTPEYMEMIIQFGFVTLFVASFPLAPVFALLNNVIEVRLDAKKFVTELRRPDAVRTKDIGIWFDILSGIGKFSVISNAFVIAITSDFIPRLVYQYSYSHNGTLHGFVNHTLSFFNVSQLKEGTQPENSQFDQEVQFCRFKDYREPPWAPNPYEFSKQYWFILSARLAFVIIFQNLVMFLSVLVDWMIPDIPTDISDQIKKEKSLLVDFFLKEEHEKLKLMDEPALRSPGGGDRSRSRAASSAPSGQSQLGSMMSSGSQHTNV
# ANO6 (TMEM16F) = target: T3, ANO6 (TMEM16F) (Homo sapiens, UniProt Q4KMQ2); assay: Whole-cell patch clamp of ANO6 currents in HEK 293T-ANO6 cells; format: cell-based
# T3 sequence (Q4KMQ2 1-931 isoform Q4KMQ2-2): T1 sequence (Q4KMQ2 1-931 isoform Q4KMQ2-2)
# [1] = target: T4, ANO6 phospholipid scramblase (Homo sapiens, UniProt Q4KMQ2); assay: Ionomycin-induced PS externalization; format: cell-based
# T4 sequence (Q4KMQ2 1-931 isoform Q4KMQ2-2): T1 sequence (Q4KMQ2 1-931 isoform Q4KMQ2-2)
# cytosolic Ca2+ signals [2] = assay: Ionomycin-induced cytosolic Ca2+ signals; format: cell-based
# human WT-CFTR = assay: CFTR short-circuit current in FRT-CFTR cells; format: cell-based; details: up to a 30-μM concentration
# HeLa-ACE2 cells [3] = assay: SARS2-PsV-induced PS externalization in HeLa-ACE2 cells; format: cell-based; details: for SARS2-PsV-induced PS externalization: 1 h; for PS externalization evoked by trypsin-pretreated SARS2-PsV: trypsin 10 μg/mL, 10 min, 37°C
# HeLa-ACE2 cells [4] = assay: SARS2-PsV-induced multinucleated cell formation; format: cell-based; details: SARS2-PsV 30 min
# [5] = tested on: CHO-Spike / HEK 293T-ACE2-TMPRSS2 cells; format: cell-based; details: 10 μM
# [6] = tested on: HEK 293T-ACE2-TMPRSS2 cells; assay: SARS2-PsV-induced cytosolic Ca2+ signals; format: cell-based; details: pretreatment: BAPTA-AM 3 μM, camostat 10 μM, A6-001 10 μM
# [7] = tested on: HEK 293T-ACE2-TMPRSS2 cells; format: cell-based; details: 10 μM, ATP 100 μM
# Calu-3 cells [8] = assay: ATP-induced Ca2+ response in Calu-3 cells; format: cell-based, human; details: 10 μM, ATP 100 μM
# [9] = tested on: SARS-CoV-2 Spike pseudotyped virus (SARS2-PsV); assay: microbe, parasite or virus in culture; format: cell-based; details: for single-round infection of SARS2-PsV: BAPTA-AM 10 μM
# SARS-CoV-2 [10] = assay: Viral replication of authentic SARS-CoV-2 in Calu-3 cells; format: cell-based
# SARS-CoV-2 [11] = assay: Viral replication of authentic SARS-CoV-2 in Vero cells; format: cell-based; details: for IC50: read-out: IC50, viral replication, Vero, supernatant
# SARS-CoV-2 [12] = assay: Viral replication of SARS-CoV-2 in primary human nasal epithelial; format: cell-based; details: 10 μM basolateral, 72 h, HNE
# [13] = tested on: recombinant eGFP adenovirus (Ad-eGFP); assay: Adenovirus; format: cell-based; details: 10 μM; 1 MOI; 48 h; HEK 293T
# Calu-3 cells [14] = assay: Cell viability MTS assay, Calu-3 cells; format: cell-based, human; details: Calu-3 and Vero cells
# SARS-CoV-2 [15] = assay: Cellular viral RNAs by qPCR at 4 h post-infection in Vero cells; format: cell-based; details: 0.01 MOI
# human ANO1 = assay: YFP quenching anion channel assay, FRT-ANO1 cells
# hANO6 = details: 10 μM
# HeLa-ACE2 cells [16] = assay: Authentic SARS-CoV-2-induced PS externalization in HeLa-ACE2 cells; format: cell-based; details: 10 μM; 1 h pretreatment; 10 MOI
# [17] = tested on: PS scrambling induced by ionomycin; assay: Ionomycin-induced PS scrambling, camostat control; format: cell-based; details: camostat 100 μM, 1 h prior; ionomycin 10 μM, 10 min
# SARS-CoV-2 [18] = details: HeLa-ACE2 cells; ref Shang et al., 2020; cited from earlier work
# [19] = tested on: endogenous Cl- currents in HEK 293 cells; details: ref Braga et al., 2021; cited from earlier work
# cytosolic Ca2+ signals [20] = details: ref Braga et al., 2021; cited from earlier work
# [21] = 10 μM during infection and 4 h post-infection
# [22] = 10 μM during the infection period alone
compound,measurement,setting,value
"O=C(NCc1ccc(F)cc1)c1cccc(Nc2ccc(-c3ccccc3)nn2)c1 [A6-001, N-(4-fluorobenzyl)-3-((6-phenylpyridazin-3-yl)amino)benzamide]",IC50,"human ANO6; half-maximal inhibitory concentration [IC50], ANO6 ion channel, FRT-ANO6 cells, 10 μM ionomycin",90 nM
same,ANO6 selectivity against ANO2,human ANO2,90 fold
same,IC50,ANO6 (TMEM16F),70 nM
same,IC50,[1],910 nM
same,ionomycin-induced PS externalization,"[1]; 10 μM, FRT-ANO6 cells",most effective
same,scramblase IC50 relative to that for ANO6 ion channel activity,[1]; larger,approximately 10 fold
same,ionomycin-induced cytosolic Ca2+ signals,cytosolic Ca2+ signals [2]; up to 30 μM,did not affect
same,CFTR currents,human WT-CFTR,did not affect
same,SARS2-PsV-induced PS externalization,HeLa-ACE2 cells [3]; 10 μM,strongly inhibited; also recorded: inhibit
same,PS externalization evoked by trypsin-pretreated SARS2-PsV,HeLa-ACE2 cells [3],inhibits
same,multinucleated cell formation,HeLa-ACE2 cells [4],inhibits; also recorded: significantly reduced
same,membrane-fusion events,[5]; 8-h time-lapse,abolishes; also recorded: profoundly reduced
same,initial lipid-mixing event and cell-cell fusion,[5]; Video S3,eliminated
same,cell-cell adhesion,[5]; initial 1 h,does not affect; also recorded: not affecting
same,SARS2-PsV-induced cytosolic Ca2+ signals,[6],did not affect
same,purinergic agonist (ATP)-induced Ca2+ response,[7],did not alter
same,purinergic agonist (ATP)-induced Ca2+ response,Calu-3 cells [8],did not alter
same,"cellular viral reduction, pseudotyped virus",[9],78%
same,single-round infection of SARS2-PsV,[9],dose dependently inhibited
same,IC50,"[9]; Severe acute respiratory syndrome coronavirus 2, read-out: IC50, single-round infection",420 nM
same,"viral reduction, qPCR","SARS-CoV-2 [10]; 10 μM, 48 h, […], Calu-3",1/50
same,ΔCt,"SARS-CoV-2 [10]; 10 μM, 48 h, […], Calu-3",−13.5
same,IC50,"SARS-CoV-2 [10]; Severe acute respiratory syndrome coronavirus 2, Calu-3, 48 h, read-out: IC50, viral replication",970 nM
same,"viral reduction, plaque assay","SARS-CoV-2 [11]; 10 μM, 48 h, Vero",1/500
same,"viral reduction, qPCR","SARS-CoV-2 [11]; 10 μM, 48 h, Vero",1/150
same,ΔCt,"SARS-CoV-2 [11]; 10 μM, 48 h, Vero",−11.8
same,IC50,"SARS-CoV-2 [11]; Severe acute respiratory syndrome coronavirus 2, Vero, 48 h",930 nM
same,virus-induced cytolysis,"SARS-CoV-2 [11]; Vero, 48 h, light microscopy",dose dependently reduced
same,IC50,SARS-CoV-2 [11],740 nM
same,"average reduction in viral replications, plaque assay",SARS-CoV-2 [12],94%
same,replications of the non-enveloped adenovirus,[13],did not affect
same,safety margin,Calu-3 cells [14],> 100
same,reduction in cellular viral RNAs,SARS-CoV-2 [15]; [21],98%
same,"ΔΔCt, cellular viral RNA",SARS-CoV-2 [15]; [21],5.58
same,"cellular viral reduction, authentic virus",SARS-CoV-2 [15]; [22],86%
same,"ΔΔCt, cellular viral RNA",SARS-CoV-2 [15]; [22],2.84
same,ANO6 selectivity against ANO1,human ANO1,460 fold
same,"ionomycin-induced increase in Lact-C2-positive, PI-negative cell population (Q3)",hANO6; Jurkat-ANO6,reversed
same,"ionomycin-induced increase in Lact-C2-positive, PI-negative cell population (Q3)",hANO6; Jurkat,reversed
"CCOC(=O)c1c(NCc2ccc(SC)cc2)c2cccc(C)c2[nH]c1=O [A6-004, ethyl 8-methyl-4-((4-(methylthio)benzyl)amino)-2-oxo-1,2-dihydroquinoline-3-carboxylate]",IC50 on all examined ANOs,"human ANO6; ANO1, ANO2 and ANO6",micromolar ranges
same,ionomycin-induced cytosolic Ca2+ signals,cytosolic Ca2+ signals [2]; at 30 μM,partially reduced
same,SARS2-PsV-induced PS externalization,HeLa-ACE2 cells [3]; 10 μM,strongly inhibited; also recorded: inhibit
"CC(=O)OCOC(=O)CN(CC(=O)OCOC(C)=O)c1ccccc1OCCOc1ccccc1N(CC(=O)OCOC(C)=O)CC(=O)OCOC(C)=O [BAPTA-AM, reference compound]",SARS2-PsV-induced PS externalization,HeLa-ACE2 cells [3]; 10 μM,nullified; also recorded: inhibits
same,authentic SARS-CoV-2 virus-evoked PS scrambling,HeLa-ACE2 cells [16],suppressed
same,SARS2-PsV-induced cytosolic Ca2+ signals,[6],nullified
same,single-round infection of SARS2-PsV,[9],significantly reduced
"CN(C)C(=O)COC(=O)Cc1ccc(OC(=O)c2ccc(NC(=N)N)cc2)cc1 [camostat, camostat mesylate, reference compound]",SARS2-PsV-induced PS externalization,HeLa-ACE2 cells [3]; 100 μM,reduced; also recorded: inhibits
same,PS externalization evoked by trypsin-pretreated SARS2-PsV,HeLa-ACE2 cells [3],but not by trypsinized SARS2-PsV
same,SARS2-PsV-induced cytosolic Ca2+ signals,[6],significantly reduced
same,PS scrambling induced by ionomycin,[17],did not affect
same,SARS-CoV-2 cell entry,SARS-CoV-2 [18],inhibits
CC(C)/N=c1\cc2n(-c3ccc(Cl)cc3)c3ccccc3nc-2cc1Nc1ccc(Cl)cc1 [clofazimine],endogenous Cl- currents / Cl- channel activities,[19],did not affect
O=C(Nc1ccc([N+](=O)[O-])cc1Cl)c1cc(Cl)ccc1O [niclosamide],endogenous Cl- currents / Cl- channel activities,[19],partial inhibitory effect
same,cytosolic Ca2+ signals,cytosolic Ca2+ signals [20],reduced
CC[C@@H](C(=O)[C@@H](C)[C@@H](O)[C@H](C)[C@@H]1O[C@@H]([C@@H](CC)C(=O)O)CC[C@@H]1C)[C@H]1O[C@]2(C=C[C@@H](O)[C@]3(CC[C@@](C)([C@H]4CC[C@](O)(CC)[C@H](C)O4)O3)O2)[C@H](C)C[C@@H]1C [salinomycin],endogenous Cl- currents / Cl- channel activities,[19],did not affect
